Source: ChEMBL document CHEMBL1152064, “Nucleosides and nucleotides. 128. (2S)-2-deoxy-2-C-methyl-5-iodouridine (SMIU) as a novel potent anti-herpes virus agent” (Bioorg Med Chem Lett, 1994)
Converted amounts (≈) assume the structure as drawn.

Legend:
NC-37 [1] = assay: Cytotoxic concentration required to inhibit NC-37 cells by 50%; assay type: functional; conditions: Homo sapiens
NC-37 [2] = assay: Concentration required to reduce HSV-1 (KOS strain) induced cytopathogenicity in NC-37 cells; assay type: functional, cell-based; conditions: Homo sapiens

## C[C@H]1[C@H](O)[C@@H](CO)O[C@H]1n1cc(Cl)c(N)nc1=O
NC-37 [1]
  CC50: > 100 µg/mL
NC-37 [2]
  EC50: > 100 µg/mL

## C[C@H]1[C@H](O)[C@@H](CO)O[C@H]1n1cc(F)c(=O)[nH]c1=O
NC-37 [1]
  CC50: > 100 µg/mL
NC-37 [2]
  EC50: > 100 µg/mL

## Nc1nc(=O)n([C@@H]2O[C@H](CO)[C@@H](O)[C@@H]2F)cc1I [FIACITABINE]
NC-37 [1]
  CC50: 63 µg/mL (≈ 170 µM)
NC-37 [2]
  EC50: 0.1 µg/mL (≈ 0.269 µM)

## C[C@H]1[C@H](O)[C@@H](CO)O[C@H]1n1cc(I)c(N)nc1=O
NC-37 [1]
  CC50: > 100 µg/mL
NC-37 [2]
  EC50: 4.8 µg/mL (≈ 13.1 µM)

## C[C@H]1[C@H](O)[C@@H](CO)O[C@H]1n1cc(F)c(N)nc1=O
NC-37 [1]
  CC50: 0.22 µg/mL (≈ 0.849 µM)
NC-37 [2]
  EC50: 0.22 µg/mL (≈ 0.849 µM)

## C[C@H]1[C@H](O)[C@@H](CO)O[C@H]1n1cc(Br)c(N)nc1=O
NC-37 [1]
  CC50: > 100 µg/mL
NC-37 [2]
  EC50: > 100 µg/mL

## C[C@H]1[C@H](O)[C@@H](CO)O[C@H]1n1cc(Cl)c(=O)[nH]c1=O
NC-37 [1]
  CC50: > 100 µg/mL
NC-37 [2]
  EC50: > 100 µg/mL

## C[C@H]1[C@H](O)[C@@H](CO)O[C@H]1n1cc(Br)c(=O)[nH]c1=O
NC-37 [1]
  CC50: > 100 µg/mL
NC-37 [2]
  EC50: 11 µg/mL (≈ 34.3 µM)

## O=c1[nH]c(=O)n([C@H]2C[C@H](O)[C@@H](CO)O2)cc1I [IDOXURIDINE]
NC-37 [1]
  CC50: 80 µg/mL (≈ 226 µM)
NC-37 [2]
  EC50: > 80 µg/mL

## C[C@H]1[C@H](O)[C@@H](CO)O[C@H]1n1cc(I)c(=O)[nH]c1=O
NC-37 [1]
  CC50: > 100 µg/mL
NC-37 [2]
  EC50: 0.14 µg/mL (≈ 0.38 µM)

## O=c1[nH]c(=O)n([C@@H]2O[C@H](CO)[C@@H](O)[C@@H]2F)cc1I [FIALURIDINE]
NC-37 [1]
  CC50: 6.7 µg/mL (≈ 18 µM)
NC-37 [2]
  EC50: 0.06 µg/mL (≈ 0.161 µM)

## Nc1nc2c(ncn2COCCO)c(=O)[nH]1 [ACYCLOVIR]
NC-37 [1]
  CC50: > 100 µg/mL
NC-37 [2]
  EC50: 0.17 µg/mL (≈ 0.755 µM)
